We go through one compound from paper PMC8507746, “The FHP01 DDX3X Helicase Inhibitor Exerts Potent Anti-Tumor Activity In Vivo in Breast Cancer Pre-Clinical Models” (Cancers, 2021).

Structures are written as SMILES. pIC50: −log10 of the molar value. Values joined by “and” are separate entries in the source; they are usually repeats but may differ in a detail not shown here. Equal values may be shown once.

The term pIC50 denotes the negative decadic logarithm of the IC50, by convention in mol/L.

Assay [1] deals with T1, HA-DDX3X immunoprecipitated from 293T cells (Homo sapiens, UniProt O00571).
T1 construct: host or cells: 293T cells, transient transfection, anti-HA immunoprecipitation; protein used on beads
T1 sequence (O00571 whole entry): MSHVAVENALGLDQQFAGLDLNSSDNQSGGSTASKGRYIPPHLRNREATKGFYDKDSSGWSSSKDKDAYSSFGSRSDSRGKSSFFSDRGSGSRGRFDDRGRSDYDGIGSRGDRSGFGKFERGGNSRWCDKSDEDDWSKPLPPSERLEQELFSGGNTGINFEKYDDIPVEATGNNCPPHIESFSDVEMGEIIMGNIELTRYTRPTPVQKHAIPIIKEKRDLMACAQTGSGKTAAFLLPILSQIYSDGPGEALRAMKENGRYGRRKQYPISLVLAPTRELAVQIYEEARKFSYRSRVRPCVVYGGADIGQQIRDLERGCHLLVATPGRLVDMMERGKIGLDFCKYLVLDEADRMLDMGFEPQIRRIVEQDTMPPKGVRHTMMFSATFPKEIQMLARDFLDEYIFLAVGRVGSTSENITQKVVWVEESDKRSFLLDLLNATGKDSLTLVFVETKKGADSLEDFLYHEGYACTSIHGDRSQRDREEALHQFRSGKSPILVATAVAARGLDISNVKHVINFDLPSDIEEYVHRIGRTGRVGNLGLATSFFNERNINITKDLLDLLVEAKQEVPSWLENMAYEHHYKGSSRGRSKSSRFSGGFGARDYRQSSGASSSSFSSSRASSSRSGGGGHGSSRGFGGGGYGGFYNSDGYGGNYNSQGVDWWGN
Put plainly: Qualitative in vitro helicase assay with immunoprecipitated HA-DDX3X (dsRNA unwinding). The note with it: human protein immunoprecipitated from 293T cells. The class given is biochemical. As to the method:
293T cells (3 × 10^5) were seeded in 6-well plates and, after 24 h, transfected with 1 μg of HA-DDX3 (Addgene plasmid # 44975) by using the Lipofectamine reagent (Thermo Fischer Scientific, Waltham, MA, USA). After 36 h, cells were lysed in NP-40 Lysis Buffer (20 mM HEPES pH = 7.5, 10 mM EGTA pH = 8, 40 mM β-glycerolphosphate, 1% NP40, 2.5 mM MgCl2, 2 mM Orthovanadate, 2 mM NaF, 1 mM DTT, and 1X protease inhibitors mixture) and 2 mg of proteins were immunoprecipitated with anti-HA antibodies (Covance, Princeton, NJ, USA) in NP40 lysis buffer. Immunoprecipitated samples were washed twice with lysis buffer and one time in helicase reaction buffer (50 mM Tris HCl pH = 8, 1 mM DTT, 5% glycerol, 10 mM MgCl2). Beads were then resuspended in 100 μL in helicase reaction buffer. […]
Ultimately, reactions were performed in a final volume 100 μL of helicase reaction buffer plus ATP 4 mM, 30 μL of beads used to immunoprecipitate HA-DDX3X, 20 nM of 18/36mer dsRNA, and 100 nM of competitor at 37 °C for 1 h and stopped by adding 10 μL of a stopping solution (EDTA 60 mM pH = 8, 40% glycerol, 0,6% SDS, 1% Orange G). […] Quantification of the ssRNA was performed by the ImageJ software (National Institutes of Health, Bethesda, MD, USA).

A further assay relates to DDX3X. Further details: method as in earlier work. The note with it: in vitro enzymatic activity; read-out: IC50, DDX3X helicase activity; cited from earlier work.
For assay [2], the system named is DDX3X and β-catenin in MDA MB 231 tumors. Put plainly: Western blot of DDX3X and β-catenin in tumors from treated mice. The class given is in vivo, athymic nude mice. The note with it: 45 mg/kg i.p. three times per week for 4 weeks, individual tumors. The procedure: Cells (1 × 10^5) were seeded in 6-well plates. After 24 h, cells were treated for indicated times with DMSO (vehicle) or FHP01 or XAV939 (Merck). After treatments, cells were washed with cold PBS and total protein extracts obtained by adding 80 µL of “RIPA Lysis buffer” (50 mM Tris-HCl pH 8.0, 150 mM NaCl, 0.5% Sodium deoxycholate, 0.1% SDS, 1% NP-40, 2 mM Orthovanadate, 2mM Sodium fluoride, 1mM Dithiothreitol and 1× protease inhibitors). After mechanicals detachment with cell scrapers, total lysates were collected in tubes, vortexed, and incubated for 15 min on ice. Tumors from mice were collected and disrupted by bead homogenization in Lysing Matrix D tubes using a FastPrep-24 5G homogenizer (MP Biomedicals, Solon, OH, USA) filled with “RIPA Lysis buffer” w:v. Next, samples were centrifuged for 10 min at 16,000× g, and supernatants were collected, representing total cell lysates.
Densitometric analysis of western blots was performed with NIH Image J (National Institutes of Health).

The next assay deals with MDA MB 231 cells. Put plainly: Cell viability / cytotoxicity assay (cell counting). The class given is cell-based. The conditions noted are these: Homo sapiens. The procedure: (§1) Cells were seeded at 3–5 × 10^4 cells/well density (depending on cell lines) in 12-well plates, in triplicate, and maintained at 37 °C in 5% CO2. After 24 h, cells were treated with different concentrations of indicated drugs in a range from 0 to 100 μM (0, 0.1, 1, 10, 50, 100 μM). […] Cell number of each sample was determined with Z2 Coulter Counter (Beckman Coulter, Brea, CA, USA), in triplicate. Data about cell viability were plotted in GraphPad Prism 8.0 software (GraphPad Software, San Diego, CA, USA) to draw dose-response curve and to calculate IC50.

For a further assay, the system named is MDA MB 468 cells. The assay is described as above. The class given is cell-based. The conditions noted are these: Homo sapiens. As to the method: as §1

For `CCCCc1cn(-c2ccc(NC(=O)Nc3ccccc3C(F)(F)F)cc2)nn1` [FHP01], the “inhibition of DDX3X helicase activity, qualitative” value in assay [1] is recorded as “activity comparable to RK33”. The negative-log IC50 (pIC50) is 6.52 in the assay on DDX3X; 4.87 in the assay with MDA MB 231 cells (MDA MB 231, 24h); 5.38 in the assay on MDA MB 231 cells (MDA MB 231, 48h); 5.49 with MDA MB 231 cells (MDA MB 231, 72 h); 4.90 in the assay with MDA MB 468 cells (MDA MB 468, 24h); 5.46 in the assay on MDA MB 468 cells (MDA MB 468, 48h). This compound showed a pIC50 in the assay with MDA MB 468 cells (MDA MB 468, 72 h) of 5.51. In addition, the “DDX3X : ERK2 in tumors” value in assay [2] (Ctrl 0.64, 1.00, 0.60) was 0.01 (2×) and 0.13. In assay [2] (Ctrl 0.64, 1.00, 0.89), the “β-Catenin : ERK2 in tumors” value was 0.64 and 0.79 and 0.70.
